{"source": "patent US7901689B2", "about": "“Chimeric peptides as immunogens, antibodies thereto, and methods for immunization using chimeric peptides or antibodies” (Intellect Neurosciences, Inc., priority 1999, dated 2011)", "origin": "cited, not measured here", "key": {"[1]": {"tested_on": "Aβ-induced toxicity in cultured neurons", "details": "Yankner et al., 1995"}, "[2]": {"tested_on": "Alzheimer's disease-like pathology in PDAPP transgenic mice", "details": "Schenk et al. 1999"}, "[3]": {"tested_on": "Aβ production", "details": "Knops et al., 1995, Haass et al., read-out: EC50 for inhibition of Aβ production"}}, "note": "pEC50: −log10 of the molar value."}
{"compound": "Nc1c(/N=N/c2ccc(-c3ccc(/N=N/c4cc(S(=O)(=O)O)c5ccccc5c4N)cc3)cc2)cc(S(=O)(=O)O)c2ccccc12", "note": "[Congo Red]", "values": [{"measurement": "Aβ-induced toxicity in cultured neurons", "setting": "[1]", "result": "completely inhibits"}]}
{"compound": "amyloid-β: intact amyloid-β used as immunogen by Schenk et al. (1999)", "values": [{"measurement": "development of β-amyloid plaque formation, neuritic dystrophy and astragliosis", "setting": "[2]; immunization of young animals prior to onset of neuropathologies", "result": "essentially prevented"}, {"measurement": "extent and progression of Alzheimer's disease-type neuropathologies", "setting": "[2]; treatment in older animals after onset of neuropathologies", "result": "reduce the extent and progression"}]}
{"compound": "CO/C1=C\\C(C)=C\\[C@@H](C)[C@@H](O)[C@@H](C)C/C(C)=C/C=C/[C@H](OC)[C@@H]([C@@H](C)[C@@H](O)[C@H](C)[C@@]2(O)C[C@@H](O)[C@H](C)[C@@H](C(C)C)O2)OC1=O", "note": "[Bafilomycin]", "values": [{"measurement": "pEC50", "setting": "[3]", "result": "~7.30"}]}
